Assay results from patent US20240376094A2, “SELECTIVE BCL-XL PROTAC COMPOUNDS AND METHODS OF USE” (Les Laboratoires Servier, priority 2021, published 2024).

Experiments:
endogenous BCL-xL [1] = target: T1, endogenous BCL-xL (Homo sapiens, UniProt Q07817); experiment: Degradation of endogenous BCL-xL in NCI-H1650 (ProteinSimple Jess); type: cell-based; conditions: NCI-H1650, dose 10 nM, 24 hours
T1 construct: endogenous in cells; host or cells: COR-L105 (ECACC No. 92031918); NCI-H1650 (ATCC No. CRL-5883)
Experimental: The BCL-xL degrader low molecular weight compounds were tested against two endogenous cancer cell lines: • COR-L105: ECACC No. 92031918 cultured in RPMI-1640+10% FBS • NCI-H1650: (ATCC No. CRL-5883 cultured in RPMI-1640+10% FBS
The ability of the BCL-xL degrader low molecular weight compounds to degrade endogenous BCL-xL was assessed using the ProteinSimple 2-40 kDa Jess Separation Module.
Cell lines were cultured in media that is optimal for their growth at 5% CO2, 37° C. in a tissue culture incubator. Prior to seeding for the degradation assay, the cells were split at least 2 days before the assay to ensure optimal growth density. On the day of seeding, adherent cells were lifted off tissue culture flasks using 0.25% trypsin. Cell viability and cell density were determined using a cell counter (Vi-Cell XR Cell Viability Analyzer, Beckman Coulter). Cells with higher than 85% viability were seeded for the assay.
The COR-L105 and the NCI-H1650 cell line were seeded in 6-well clear TC-treated multiple well plates (Costar® cat. #3516). Cells were seeded at a density of 2,000,000 cells per well in 2.5 mL of standard growth media. Plates were incubated at 5% CO2, 37° C. overnight in a tissue culture incubator. On the day of dosing, BCL-xL degrader low molecular weight compounds and a BCL-xL inhibitor control were prepared at 6× in standard growth media. […] A control well of untreated cells was also included in the study. Each drug concentration was tested in singlet. Plates were incubated at 5% CO2, 37° C. for 24 hours in a tissue culture incubator.
After 24 hours, the adherent cells were lifted off tissue culture plates using 0.25% trypsin. Standard growth media was added to quench the trypsin and centrifuged for 5 minutes at 1500 rpm. […]
Protein was quantified using a Pierce™ BCA Protein Assay Kit (ThermoFisher, cat #23225) following the manufacturer's instructions. […] A SpectraMax M Series Multi-Mode Microplate Reader was used to measure the absorbance at 562 nm. […] Only values that fell within the range of the standard curve were accepted for quantification. […]

endogenous BCL-xL [2] = target: T1, endogenous BCL-xL; experiment: Degradation of endogenous BCL-xL in COR-L105 (ProteinSimple Jess); type: cell-based; conditions: COR-L105, 24 h, COR-L105, dose 300 nM, read-out: % BCL-xL vs. Untreated, COR-L105
Procedure, shortened: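 COR-L105 cells (2,000,000/well) treated 24 h at 37 °C with compound at 100–300 nM final, singlet, alongside untreated cells. RIPA lysates normalized by BCA to 1.5 mg/mL, then BCL-xL detected by capillary immunoassay (2–40 kDa Jess) comparing treated with untreated lysates.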

T1 sequence (Q07817 whole entry): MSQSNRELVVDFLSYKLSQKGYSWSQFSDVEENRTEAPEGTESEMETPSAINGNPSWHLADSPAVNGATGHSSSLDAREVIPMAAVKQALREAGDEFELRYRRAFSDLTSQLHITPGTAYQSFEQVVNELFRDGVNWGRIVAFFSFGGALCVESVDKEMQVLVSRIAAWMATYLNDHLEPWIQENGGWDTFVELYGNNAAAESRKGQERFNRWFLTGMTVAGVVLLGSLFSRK

% BCL-xL vs. Untreated, NCI-H1650 (endogenous BCL-xL [1]) [%] | remaining activity at 0.3 µM (endogenous BCL-xL [2]) [%] | Compound
16.23 | 22.6 | Cc1ncsc1-c1ccc([C@H](C)NC(=O)[C@@H]2C[C@@H](O)CN2C(=O)[C@@H](NC(=O)CCCCCCCCCCC(=O)N2CCN(CC#Cc3ccc(OCCCc4sc(N5CCCc6c5nnc(Nc5nc7ccccc7s5)c6C)nc4C(=O)O)c(F)c3)CC2)C(C)(C)C)cc1 [Example 46, 2-(3-(benzo[d]thiazol-2-ylamino)-4-methyl-6,7-dihydropyrido [2,3-c]pyridazin-8(5H)-yl)-5-(3-(2-fluoro-4-(3-(4-(12-(((S)-1-((2S,4R)-4-hydroxy-2-(((S)-1-(4-(4-methylthiazol-5-yl)phenyl)ethyl)carbamoyl)pyrrolidin-1-yl)-3,3-dimethyl-1-oxobutan-2-yl)amino)-12-oxododecanoyl)piperazin-1-yl)prop-1-yn-1-yl)phenoxy)propyl)thiazole-4-carboxylic acid]
1.05 |  | Cc1ncsc1-c1ccc(CNC(=O)[C@@H]2C[C@@H](O)CN2C(=O)[C@@H](NC(=O)CCCCCCCCCCC(=O)N2CCN(CC#Cc3ccc(OCCCc4sc(N5CCCc6c5nnc(Nc5nc7ccccc7s5)c6C)nc4C(=O)O)c(F)c3)CC2)C(C)(C)C)cc1 [Example 48, 2-(3-(benzo[d]thiazol-2-ylamino)-4-methyl-6,7-dihydropyrido [2,3-c]pyridazin-8(5H)-yl)-5-(3-(2-fluoro-4-(3-(4-(12-(((S)-1-((2S,4R)-4-hydroxy-2-((4-(4-methylthiazol-5-yl)benzyl)carbamoyl)pyrrolidin-1-yl)-3,3-dimethyl-1-oxobutan-2-yl)amino)-12-oxododecanoyl)piperazin-1-yl)prop-1-yn-1-yl)phenoxy)propyl)thiazole-4-carboxylic acid]
9.22 | 12.1 | Cc1ncsc1-c1ccc([C@H](C)NC(=O)[C@@H]2C[C@@H](O)CN2C(=O)[C@@H](NC(=O)CCCCCCCCCCCN2CCN(CC#Cc3ccc(OCCCc4sc(N5CCCc6c5nnc(Nc5nc7ccccc7s5)c6C)nc4C(=O)O)c(F)c3)CC2)C(C)(C)C)cc1 [Example 51, 2-(3-(benzo[d]thiazol-2-ylamino)-4-methyl-6,7-dihydropyrido [2,3-c]pyridazin-8(5H)-yl)-5-(3-(2-fluoro-4-(3-(4-(12-(((S)-1-((2S,4R)-4-hydroxy-2-(((S)-1-(4-(4-methylthiazol-5-yl)phenyl)ethyl)carbamoyl)pyrrolidin-1-yl)-3,3-dimethyl-1-oxobutan-2-yl)amino)-12-oxododecyl)piperazin-1-yl)prop-1-yn-1-yl)phenoxy)propyl)thiazole-4-carboxylic acid]
